From patent US12606572B2, “Substituted heterocycles and uses thereof” (Kumquat Biosciences Inc., priority 2023, dated 2026)

Experiments:
[1] = biological target: T1, KRAS G12S (Homo sapiens, UniProt P01116, G12S); assay: HTRF assay, interaction of GST-tagged K-Ras with His-tagged hSOS1 (KRAS G12S); type: biochemical; settings: <500 nM, read-out: Inhibition of KRAS G12S (IC50)
T1 construct: made in house; host or cells: E. coli BL21 (DE3)
In short: (§1)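 GST-K-Ras (G12S or WT) with anti-GST-Eu donor mixed with His-hSOS1 and anti-6His-XL665 acceptor in ~5 mM HEPES pH 7.4, 150 mM NaCl, 1 mM DTT, 0.05% BSA, 0.0025% Igepal. After ~10 min or longer, HTRF 665/620 nm ratio read.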

[2] = biological target: T2, KRAS WT (Homo sapiens, UniProt P01116); assay: HTRF assay, interaction of GST-tagged K-Ras with His-tagged hSOS1 (KRAS wildtype); type: biochemical; settings: <500 nM, read-out: Inhibition of KRAS WT (IC50)
T2 construct: made in house; host or cells: E. coli BL21 (DE3)
In short: as §1

T2 sequence (P01116 1-188 isoform P01116-2): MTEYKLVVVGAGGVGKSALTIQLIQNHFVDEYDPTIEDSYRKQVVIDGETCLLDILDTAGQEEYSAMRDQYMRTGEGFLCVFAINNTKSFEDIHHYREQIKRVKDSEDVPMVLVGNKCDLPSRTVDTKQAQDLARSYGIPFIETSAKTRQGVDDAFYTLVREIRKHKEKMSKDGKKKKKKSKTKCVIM
T1 sequence (P01116 1-188 isoform P01116-2 G12S): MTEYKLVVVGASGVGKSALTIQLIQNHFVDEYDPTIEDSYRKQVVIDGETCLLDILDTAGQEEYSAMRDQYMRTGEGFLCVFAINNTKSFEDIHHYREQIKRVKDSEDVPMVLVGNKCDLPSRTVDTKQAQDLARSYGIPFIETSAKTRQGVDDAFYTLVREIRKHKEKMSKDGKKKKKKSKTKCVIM

IC50 [1]	IC50 [2]	SMILES
< 500 nM	< 500 nM	C[C@@H]1[C@H](N2CCCOc3c(Cl)c(-c4ccc(F)c5sc(N)c(C#N)c45)c(F)c4nc(OC[C@@]56CCCN5C[C@H](F)C6)nc2c34)CCN1C(=O)n1cnc(F)n1 [Compound 448, 2-amino-4-(9-chloro-11-fluoro-4-((2R,3R)-1-(3-fluoro-1H-1,2,4-triazole-1-carbonyl)-2-methylpyrrolidin-3-yl)-2-(((2R,7aS)-2-fluorotetrahydro-1H-pyrrolizin-7a(5H)-yl)methoxy)-4,5,6,7-tetrahydro-[1,5]oxazocino [4,3,2-de]quinazolin-10-yl)-7-fluorobenzo[b]thiophene-3-carbonitrile]
< 500 nM	< 500 nM	C[C@@H]1[C@H](N2c3nc(OC[C@@]45CCCN4C[C@H](F)C5)nc4c(F)c(-c5ccc(F)c6sc(N)c(C#N)c56)c(Cl)c(c34)OC[C@@H]2C)CCN1C(=O)n1ccnc1 (single isomer, unassigned) [Compound 432]
< 500 nM	< 500 nM	Cc1ncn(C(=O)N2C[C@@H](CN3CCOc4c(Cl)c(-c5ccc(F)c6sc(N)c(C#N)c56)c(F)c5nc(OC[C@@]67CCCN6C[C@H](F)C7)nc3c45)[C@H]2C2(C)CC2)c1C (single isomer, unassigned) [Compound 476]
< 500 nM	< 500 nM	C[C@@H]1CCOc2c(Cl)c(-c3ccc(F)c4sc(N)c(C#N)c34)c(F)c3nc(OC[C@@]45CCCN4C[C@H](F)C5)nc(c23)N1C[C@@H]1CN(C(=O)n2ccnc2)[C@@H]1C1(C)CC1 [Compound 455, 4-((5R)-4-(((2S,3R)-1-(1H-imidazole-1-carbonyl)-2-(1-methylcyclopropyl)azetidin-3-yl)methyl)-9-chloro-11-fluoro-2-(((2R,7aS)-2-fluorotetrahydro-1H-pyrrolizin-7a(5H)-yl)methoxy)-5-methyl-4,5,6,7-tetrahydro-[1,5]oxazocino[4,3,2-de]quinazolin-10-yl)-2-amino-7-fluorobenzo [b]thiophene-3-carbonitrile]
